The results in this text go back to patent US20080014288A1, “Zinc-containing treatments for hyperphosphatemia” (priority 2004, published 2008).

The subject of this assay is house male Sprague Dawley (SD) rats. Briefly: In vivo urinary phosphate excretion in rats fed test substance mixed in Purina 5002 diet. Details: species or system rat. Conditions: for % Urinary Phosphate Relative to that of Control Animals / Phosphate Excretion: Table 1; for Phosphate Excretion: urine collected on days 5 and 6; for amounts of urinary phosphate compared with control (in words): rats on zinc therapy vs control which did not go through the zinc therapy. The protocol: House male Sprague Dawley (SD) rats were used for the experiments.
To establish baseline phosphorus excretion, the rats were placed in metabolic cages for 48 hours. Their urine was collected and its phosphorus content analyzed with a Hitachi analyzer to determine phosphorus excretion in mg/day. Any rats with outlying values were excluded; and the remainder of the rats was distributed into groups.
Cellulose at 0.5% by weight was used as a negative control. For each rat, 200 g of diet was prepared.
Each rat was weighed and placed on the standard diet. After 4 days the standard diet was replaced with the treatment diet (or control diet for the control group). On days 5 and 6, urine samples from the rats at 24 hours (±30 minutes) were collected and analyzed. The test rats were again weighed, and any weight loss or gain was calculated. Any remaining food was also weighed to calculate the amount of food consumed per day. A change in phosphorus excretion relative to baseline and cellulose negative control was calculated using Excel program.
A change in phosphorus excretion relative to baseline and cellulose negative control was calculated using Excel program.

Setting [1] is: 0.5% of diet by weight in Purina 5002, cellulose 0.5% negative control.
The mark [2] stands for this setting: 0.5% of diet by weight in Purina 5002.

Entries after “also recorded” stand apart in the source; their conditions may differ.

For the molecule `CC(=O)[O-].CC(=O)[O-].O.O.[Zn+2]` [Zinc acetate dehydrate], the “amounts of urinary phosphate compared with control (in words)” value (“amounts … compared with control (in words)” below) is recorded as “much lower”. Moreover, the “% Urinary Phosphate Relative to that of Control Animals” value (shortened to “% Urinary Phosphate Relative to that”) under setting [1] is on record as 56.7%. The “Phosphate Excretion” value under setting [2] came to 9.4 mg/day. In addition, the “amounts … compared with control (in words)” value (listed as zinc acetate dihydrate) is reported as “substantially reduce”.

For the molecule `O=C([O-])C(=O)[O-].[Zn+2]` [Zinc Oxalate], the “amounts … compared with control (in words)” value is recorded as “much lower”. Moreover, the “% Urinary Phosphate Relative to that” value under setting [1] came to 78.0%. For the same molecule, the “Phosphate Excretion” value under setting [2] is recorded as 16.2 mg/day.

As to `NCC(=O)[O-].NCC(=O)[O-].O.[Zn+2]` [Zinc glycinate monohydrate], under setting [1], the “% Urinary Phosphate Relative to that” value came to 79.7%. Also, the “Phosphate Excretion” value under setting [2] worked out at 15.5 mg/day. Besides, for the setting “monohydrate”, the “amounts … compared with control (in words)” value is reported as “much lower; also recorded: substantially reduce”.

For `O=C[O-].O=C[O-].[Zn+2]` [Zinc Formate], the “amounts … compared with control (in words)” value is “much lower”. Moreover, under setting [1], the “% Urinary Phosphate Relative to that” value is 48.5%. Under setting [2], the “Phosphate Excretion” value was found to be 10.1 mg/day.

In the case of `O.O.O=C([O-])CC(O)(CC(=O)[O-])C(=O)[O-].O=C([O-])CC(O)(CC(=O)[O-])C(=O)[O-].[Zn+2].[Zn+2].[Zn+2]` [Zinc citrate dihydrate], the “% Urinary Phosphate Relative to that” value under setting [1] is on record as 70.8%. Also, under setting [2], the “Phosphate Excretion” value is on record as 12 mg/day. Also, the “amounts … compared with control (in words)” value (citrate dihydrate) was “much lower; also recorded: substantially reduce”.

Take `[Cl-].[Cl-].[Zn+2]` [Zinc chloride]: the “amounts … compared with control (in words)” value is recorded as “much lower; also recorded: substantially reduce”. Also, the “% Urinary Phosphate Relative to that” value under setting [1] was found to be 50.6%. In addition, the “Phosphate Excretion” value under setting [2] turned out to be 8.8 mg/day.

For the molecule `[O]=[Zn]` [Zinc oxide], the “amounts … compared with control (in words)” value is given as “much lower; also recorded: substantially reduce”. Further, under setting [1], the “% Urinary Phosphate Relative to that” value turned out to be 18.4%. The “Phosphate Excretion” value under setting [2] is recorded as 3.2 mg/day.

For `[O-2].[Zn+2]` [zinc oxide, nanopowder, zinc oxide], for the setting “0.25% of diet by weight in Purina 5002, cellulose negative control”, the “% Urinary Phosphate Relative to that” value amounted to 50.7%. Where the note is “0.25% of diet by weight in Purina 5002”, the “Phosphate Excretion” value is given as 9.7 mg/day.
